Experimental data reported in patent publication US6750244B2, “Compounds active at a novel site on receptor-operated calcium channels useful for treatment of neurological disorders and diseases” (NPS Pharmaceuticals, Inc., priority 1993, dated 2004).
Where “and” joins values, the source holds several entries; their conditions need not be identical. Equal values may be shown once. Where a name gives a salt, the structure may show the parent alone. Read-outs that look alike come from different tables or passages of the source. Marks after values point to notes of the source that are not given here.

Experiments:
[1] = biological target: NMDA receptor-ionophore complex (site labeled by [3H]MK-801); test: Inhibition of [3H]MK-801 binding in rat cortical/hippocampal washed membrane preparations; details: for IC50: read-out: IC50 (μM) vs. [3H]MK-801, rat cortical/hippocampal washed membranes
NMDA receptor = test: Inhibition of NMDA/glycine-induced increases in intracellular calcium in cultured rat cerebellar granule cells (RCGC); format: cell-based
[2] = NMDA/glycine-induced increases in intracellular calcium, cultured rat cerebellar granule cells; read-out: IC50 (μM) vs. NMDA

| SMILES | IC50 [1] | IC50 (NMDA receptor; [2]) | other results |
| --- | --- | --- | --- |
| NCC=C(c1ccccc1)c1cccc(F)c1 (racemic) [Compound 107, 3-(3-fluorophenyl)-3-phenyl-prop-2-ene-1-amine] | 3.83 µM | 2.67 µM | – |
| CCC(NCCC(c1ccccc1)c1ccccc1)c1ccccc1OC (racemic) [Compound 167, (R,S)-N-1-(2-methoxyphenylpropyl)-3,3-diphenylpropylamine] | 14.5 µM | 0.08 µM | – |
| COc1ccc(C(CCN)c2cccc(F)c2)cc1F (racemic) [Compound 173, (R,S)-3-(3-Fluoro-4-methoxy)-3-(3-fluorophenyl)propylamine maleate] | 24.1 µM | 22.9 µM | – |
| CNCCC(c1cccc(F)c1)c1ccc(OC)c(F)c1 (racemic) [Compound 174, (R,S)-N-Methyl-3-(3-fluoro-4-methoxy)-3-(3-fluorophenyl)propyl amine maleate] | 57 µM | – | – |
| NCC[C@H](c1cccc(F)c1)c1ccc(O)c(F)c1 (racemic) [Compound 175, (R,S)-3-(3-Fluoro-4-hydroxy)-3-(3-fluorophenyl)propylamine maleate] | 5.1 µM | – | – |
| CNCCC(c1cccc(F)c1)c1ccc(O)c(F)c1 (racemic) [Compound 176, (R,S)-N-Methyl-3-(3-fluoro-4-hydroxy)-3-(3-fluorophenyl)propyl amine hydrochloride] | 10 µM | – | – |
| NCC(c1ccccc1)c1ccccc1 [2,2-diphenylethylamine, reference compound] | – | 24.5 µM | – |
| C[C@@H](NCCC(c1ccccc1)c1ccccc1)c1ccccc1 [(R)-fendiline, reference compound] | – | 0.719 µM | – |
| C[C@H](NCCC(c1ccccc1)c1ccccc1)c1ccccc1 [(S)-fendiline, reference compound] | – | 0.686 µM | – |
| CN(C)CCC=C1c2ccccc2CCc2ccccc21 [Amitriptyline, reference compound] | 14.2 µM | – | – |
| COc1ccc(C(CC(C)N)c2ccccc2)cc1 (centres unmarked) [Astra compound, reference compound] | – | > 30 µM | – |
| CN(C)CCCN1c2ccccc2Sc2ccc(Cl)cc21 [Chlorpromazine, reference compound] | 11.2 µM | – | – |
| COc1ccccc1CC(=O)NC(CC(N)=O)C(=O)NCCCCCNCCCNCCCNC(=O)C(N)CCCNC(=N)N (centres unmarked) [Compound 5] | 15.2 µM | 0.102 µM | IC50 (NMDA receptor; TFA salt; read-out: IC50 (μM) vs. NMDA): 0.07 µM |
| COc1ccccc1CC(=O)NC(Cc1ccccc1)C(=O)NCCCCCNCCCNCCCNC(=O)C(N)CCCNC(=N)N (centres unmarked) [Compound 6] | > 100 µM | 0.129 µM | % inhibition of [3H]MK-801 binding at the stated concentration (IC50 study incomplete) ([1]; at 100 μM): (0% at 100 μM)^d |
| COc1ccccc1CC(=O)NC(CC(C)C)C(=O)NCCCCCNCCCNCCCNC(=O)C(N)CCCNC(=N)N (centres unmarked) [Compound 7] | 129 µM | 0.163 µM | – |
| COc1ccccc1CC(=O)NC(CC(N)=O)C(=O)NCCCCCNCCCNCCCNC(=O)C(N)CCCCN (centres unmarked) [Compound 8] | 219 µM | 0.099 µM | – |
| N=C(N)NCCCC(N)C(=O)NCCCNCCCNCCCCCNC(=O)C(CC(N)=O)NC(=O)Cc1ccccc1O (centres unmarked) [Compound 10] | – | 0.082 µM | % inhibition of [3H]MK-801 binding at the stated concentration (IC50 study incomplete) ([1]; at 80 μM): (57% at 80 μM)^d |
| NCCCOCCCCOCCCNC(=O)Cc1cc(Br)ccc1O [Compound 15] | – | 4.9 µM | – |
| NCCCOCCCCOCCCNC(=O)Cc1c[nH]c2ccc(Br)cc12 [Compound 16] | 28.8 µM | 5.1 µM | – |
| NCCCOCCCCOCCCNC(=O)Cc1ccc2ccccc2c1 [Compound 17] | 36.3 µM | 9.6 µM | – |
| COc1ccccc1CC(=O)NCCCOCCCCOCCCN [Compound 18] | 34 µM | 5.1 µM | – |
| CCC(N)CC(c1cccc(F)c1)c1cccc(F)c1 (centres unmarked) [Compound 23, 3,3-bis(3-fluorophenyl)-1-ethyl-1-propylamine] | 5.4 µM | 0.267 µM | – |
| COc1ccc(C(CCN)c2cccc(F)c2)cc1 (centres unmarked) [Compound 26, 3-(3-fluorophenyl)-3-(4-methoxyphenyl)-1-propylamine] | 34 µM | 27 µM | – |

| SMILES | IC50 [1] | IC50 (NMDA receptor; [2]) | other results |
| --- | --- | --- | --- |
| Cc1ccccc1C(CCN)c1cccc(F)c1 (centres unmarked) [Compound 27, 3-(3-fluorophenyl)-3-(2-methylphenyl)-1-propylamine] | 0.18 µM | 0.071 µM | – |
| Cc1cccc(C(CCN)c2cccc(F)c2)c1 (centres unmarked) [Compound 28, 3-(3-fluorophenyl)-3-(3-methylphenyl)-1-propylamine] | 2.3 µM | 0.38 µM | – |
| Cc1ccc(C(CCN)c2cccc(F)c2)cc1 (centres unmarked) [Compound 29, 3-(3-fluorophenyl)-3-(4-methylphenyl)-1-propylamine] | 5.8 µM | 1.9 µM | – |
| NCCC(c1cccc(F)c1)c1cccc(Cl)c1 (centres unmarked) [Compound 30, 3-(3-fluorophenyl)-3-(3-chlorophenyl)-1-propylamine] | 0.407 µM | 0.035 µM | – |
| CCNCCC(c1ccccc1)c1ccccc1 [Compound 68, N-ethyl-3,3-diphenylpropylamine] | – | 2.9 µM | – |
| NCCCC(c1ccccc1)c1ccccc1 [Compound 70, 4,4-diphenylbutylamine] | – | 1.7 µM | – |
| NCCCCC(c1ccccc1)c1ccccc1 [Compound 71, 5,5-diphenylpentylamine] | – | 6.35 µM and 6.4 µM | – |
| CC(C)NCCC(c1ccccc1)c1ccccc1 [Compound 72, N-isopropyl-3,3-diphenylpropylamine] | – | 7.4 µM | – |
| CN(C)CCC(c1ccccc1)c1ccccc1 [Compound 73, N,N-dimethyl-3,3-diphenylpropylamine] | – | 12.6 µM | – |
| CCN(CC)CCC(c1ccccc1)c1ccccc1 [Compound 74, N,N-diethyl-3,3-diphenylpropylamine] | – | 27.5 µM | – |
| NCCC(c1ccccc1)C1CCCCC1 (centres unmarked) [Compound 75] | – | 0.94 µM | – |
| NCCC(c1ccc(F)cc1)c1ccccc1F (centres unmarked) [Compound 76, 3-(2-fluorophenyl)-3-(4-fluorophenyl)-1-propylamine] | – | 0.73 µM | – |
| NCCC(c1ccc(F)cc1)c1ccc(F)cc1 [Compound 77, 3,3-bis(4-fluorophenyl)-1-propylamine] | – | 5.5 µM | – |
| NCCC(c1cccc(C(F)(F)F)c1)c1cccc(C(F)(F)F)c1 [Compound 78, 3,3-bis[3-(trifluoromethyl)phenyl]-1-propylamine] | – | – | IC50 (NMDA receptor; read-out: IC50 (μM) vs. NMDA; NMDA/glycine-induced increases in intracellular calcium, cultured rat cerebellar granule cells): 10.2 µM |
| COc1cccc(C(=CCN)c2cccc(OC)c2)c1 [Compound 116, 3,3-bis(3-methoxyphenyl)-prop-2-ene-1-amine] | – | 3.6 µM and 4.47 µM | – |
| NCCc1ccccc1Cc1ccccc1F [Compound 129] | – | 1.26 µM | – |
| NCCc1ccccc1Cc1cccc(F)c1 [Compound 130] | – | 0.851 µM | – |
| NCCc1ccccc1Cc1ccc(F)cc1 [Compound 131] | – | 1.23 µM | – |
| COc1cccc(/C(=C\CN)c2cccc(Cl)c2)c1 [Compound 143] | – | 2.82 µM | – |
| Cc1ccccc1OC(CCN)c1ccccc1 (centres unmarked) [Compound 177] | 0.754 µM | – | – |
| COc1ccccc1OC(CCN)c1ccccc1 (centres unmarked) [Compound 178] | 1.25 µM | – | – |
| NCCC1c2cccc(F)c2CCc2c(F)cccc21 [Compound 193] | – | – | activity vs. [3H]MK-801 binding ([1]; @ 1 μM): inactive @ 1 μM |
| NCCC1c2cc(F)ccc2CCc2c(F)cccc21 (centres unmarked) [Compound 194] | 0.371 µM | – | – |

| SMILES | IC50 [1] | IC50 (NMDA receptor; [2]) | other results |
| --- | --- | --- | --- |
| NCCC1c2cc(F)ccc2CCc2ccc(F)cc21 [Compound 195, 3,7-Difluoro-10,11-dihydro-5-(2-aminoethyl)-5H-dibenzo[a,d]cycloheptene hydrochloride] | 0.029 µM | – | – |
| NCCC1c2ccccc2CCc2c(F)cccc21 (centres unmarked) [Compound 196] | 2.24 µM | – | – |
| NCCC1c2ccccc2CCc2ccc(F)cc21 (centres unmarked) [Compound 197, 3-Fluoro-10,11-dihydro-5-(2-aminoethyl)-5H-dibenzo[a,d]cycloheptene hydrochloride] | 0.053 µM | – | – |
| CN(C)CCC=C1c2ccccc2C=Cc2ccccc21 [Cyclobenzaprine, reference compound] | 14.5 µM | – | – |
| CN(C)CCCN1c2ccccc2CCc2ccccc21 [Imipramine, reference compound] | 6.75 µM | – | – |
| CN(C)CCC(Oc1ccc2c(c1)CCCC2)c1ccc(C#N)cc1 (centres unmarked) [Novo-Nordisk compound^d, reference compound] | – | 28.8 µM | – |
| CN(C)CCC(c1ccc(Br)cc1)c1ccccn1 (centres unmarked) [brompheniramine, reference compound] | – | 138 µM | – |
| CN1CCN(C(c2ccccc2)c2ccc(Cl)cc2)CC1 (centres unmarked) [chlorcyclizine, reference compound] | – | ~10 µM | – |
| CN(C)CCN(Cc1ccc(Cl)cc1)c1ccccn1 [chloropyramine, reference compound] | – | 76 µM | – |
| CN(C)CCC(c1ccc(Cl)cc1)c1ccccn1 (centres unmarked) [chlorpheniramine, reference compound] | – | > 100 µM | – |
| CN1CCN(C(c2ccccc2)c2ccccc2)CC1 [cyclizine, reference compound] | – | 28 µM | – |
| CNCCCN1c2ccccc2CCc2ccccc21 [desipramine, reference compound] | 3.26 µM | – | – |
| CC(C)N(CCC(C(N)=O)(c1ccccc1)c1ccccn1)C(C)C (centres unmarked) [disopyramide, reference compound] | – | > 100 µM | – |
| CN(C)CCOC(C)(c1ccccc1)c1ccccn1 (centres unmarked) [doxylamine, reference compound] | – | 62 µM | – |
| CC(C)[N+](C)(CCC(C(N)=O)(c1ccccc1)c1ccccc1)C(C)C [isopropamide, reference compound] | – | 87 µM | – |
| Cc1cccc(C)c1NC(=O)CN1CCN(CCCC(c2ccc(F)cc2)c2ccc(F)cc2)CC1 [lidoflazine, reference compound] | – | > 30 µM | – |
| CN(C)CCC(c1ccccc1)c1ccccn1 (centres unmarked) [pheniramine, reference compound] | – | 22 µM | – |
| O=c1[nH]c2ccccc2n1C1CCN(CCCC(c2ccc(F)cc2)c2ccc(F)cc2)CC1 [pimozide, reference compound] | – | > 10 µM | – |
| OC(CCN1CCCCC1)(c1ccccc1)c1ccccc1 [pridinol, reference compound] | – | 10.7 µM | – |
| OC(CCN1CCCCC1)(c1ccccc1)C1CCCCC1 (centres unmarked) [trihexyphenidyl, reference compound] | – | 5.13 µM | – |
| CN(C)C/C=C(/c1ccc(Br)cc1)c1cccnc1 [zimeldine, reference compound] | – | ≥ 26 µM | – |
